Test results taken from article PMC4147587, “Synthesis and Analgesic Effects of μ-TRTX-Hhn1b on Models of Inflammatory and Neuropathic Pain” (Toxins, 2014).
Entries after “also recorded” stand apart in the source; their conditions may differ. Where two headings read alike, the source gives them in different places.

What was measured:
human Nav1.7 = biological target: T1, human Nav1.7 (Homo sapiens, UniProt Q15858); assay: whole-cell patch clamp, human Nav1.7 transiently expressed in HEK 293 cells; type: cell-based
T1 construct: expressed in transfected cells; host or cells: HEK293 cells, transient transfection with Lipofectamine 2000
Description: Figure 2 Inhibitory effect of synthetic μ-TRTX-Hhn1b on Nav1.7 expressed on HEK 293 cells. […] (B) The inhibition of μ-TRTX-Hhn1b on Nav1.7 was dose-dependent. […] Data are plotted as a fraction of the maximum conductance. The voltage-dependence of steady-state inactivation was estimated using a standard double-pulse protocol, in which a 20-ms depolarizing test potential of 0 mV followed a 500-ms prepulse at potentials that ranged from −130 to −10 mV with a 10-mV increment. Cells were held at −100 mV.
A human Nav1.7 channel plasmid (accession No. NM_002977) and a plasmid for green ﬂuorescent protein were transiently transfected into human embryonic kidney 293 (HEK293) cells using Lipofectamine 2000 (Invitrogen, Carlsbad, CA, USA) according to the manufacturer’s instructions. HEK293 cells were grown under standard tissue culture conditions (5% CO2; 37 °C) in DMEM supplemented with 10% FBS. The β1 subunit was cotransfected with the Nav1.7 channel to increase the current density. Cells with green ﬂuorescence were selected for whole-cell patch-clamp recording at 36–72 h after transfection. Patch-clamp experiments were performed at room temperature. Suction pipettes (2.0–3.0 MΩ) were made from borosilicate glass capillary tubes using a two-step vertical micropipette puller. The pipette solution contained (in mM): CsCl 145, MgCl2∙6H2O 4, HEPES 10, EGTA 10, glucose 10, ATP 2 (pH 7.2). The external solution contained (in mM): NaCl 145, KCl 2.5, CaCl2 1.5, MgCl2.6H2O 1.2, HEPES 10, glucose 10 (pH 7.4). Experimental data were collected and analyzed using the program Pulse/Pulsefit 8.0 (HEKA Electronics, Pfalz, Germany). Macroscopic sodium currents were filtered at 5 kHz and digitized at 20 kHz with an EPC-9 patch-clamp amplifier (HEKA Electronics, Pfalz, Germany). Series resistance was kept near 5 MΩ and compensated to 65%–70%; linear capacitative and leakage currents were digitally subtracted using the P/4 protocol.

[1] = system: acetic acid-induced abdominal constriction responses in mice; type: in vivo, mouse (ICR); conditions: 15 min before acetic acid, 30 min count, n = 6
Experimental: The abdominal constriction responses induced by intraperitoneal (i.p.) injection of 0.2 mL acetic acid (0.8%), including contraction of the abdominal muscle and stretching of the hind limbs, were performed according to procedures described by Collier et al.. Mice (male, weighing 20–25 g) were pre-treated with the test samples dissolved in saline by intraperitoneal (i.p.) injection for 15 min prior to acetic acid injection. Control animals received the same volume of vehicle (saline: 0.9% sodium chloride solution). After the challenge, mice were individually placed into open polyvinyl cages (30 cm × 40 cm × 30 cm), and the abdominal constriction responses were counted cumulatively during 30 min, which was represented as the sum of constriction (S). The inhibition of pain responses was calculated by the equation as follows: inhibition of pain responses % = (Ssaline − Sdrug)/Ssaline per animal. One hundred percent corresponds to complete reversal of pain, equivalent to the non-injury value, and 0% corresponds to the value from the saline group.

[2] = system: formalin-induced pain behaviors in rats; assay: formalin-induced inflammatory rat model; type: in vivo, rat (Sprague-Dawley); conditions: for pain score over the 40 min period: mean ± SEM, saline 569.2 ± 43.5 s
Experimental: Acute and chronic nociceptive responses were measured using the rat paw formalin test as descried by Dubission and modified by Malmberg. Adult Sprague-Dawley rats (male, weighing 180–220 g) were used for this behavioral test. During the test, each rat was placed into open polyvinyl cages (30 cm × 40 cm × 30 cm) and at least 30 min before administration of the toxin. All agents were administered 30 min prior to s.c. intraplantar formalin injection. A volume of 50 μL formalin (5%) solution was used as previously described and injected into the plantar surface of one hind paw. Lifting, favoring, licking, shaking and flinching of the injected paw were recorded as nociceptive responses. The total time of the nociceptive response was measured every 5 min and […] (mean ± SEM). Recording of nociceptive behavior commenced immediately after formalin injection and was continued for 40 min.

[3] = system: motor coordination of rats (latency to fall off the rotarod); type: in vivo, rat (Sprague-Dawley); conditions: vs baseline, n = 6
Experimental: Motor activity was assessed using a rotarod apparatus for rats (Coulbourn Instruments, Lehigh Valley, PA, USA). The rotarod might be set at any speed from 0 to 50 rpm. For motor coordination assessment, rats were trained for 2 days by walking them each day on an accelerating rotarod from 4 to 40 rpm for 10 min. […] Motor performance was considered as the latency to fall off the rotarod apparatus determined from the mean time in three trials for each rat at each time.

mice and rats = assay: observation of death and abnormal behaviors in the pain tests; type: in vivo
[4] = system: Nav1.2, Nav1.3, Nav1.4, Nav1.5, Nav1.7; conditions: reference not given; cited from earlier work
[5] = system: neuronal TTX-S VGSCs in rat dorsal root ganglion (DRG) cells; conditions: cited from earlier work
Description: μ-TRTX-Hhn1b (HNTX-IV) is a 35-residue peptide from tarantula Ornithoctonus hainana (Haplopelma hainanum) venom. The amino acid sequence is […]. The peptide amidated at its C-terminal has a high proportion of basic residues and is crosslinked by three disulfide bonds. […] Therefore, the rotarod latency test was used to access the motor side effects of μ-TRTX-Hhn1b in rats.

T1 sequence (Q15858 other isoform, or with tags, fused parts or gaps): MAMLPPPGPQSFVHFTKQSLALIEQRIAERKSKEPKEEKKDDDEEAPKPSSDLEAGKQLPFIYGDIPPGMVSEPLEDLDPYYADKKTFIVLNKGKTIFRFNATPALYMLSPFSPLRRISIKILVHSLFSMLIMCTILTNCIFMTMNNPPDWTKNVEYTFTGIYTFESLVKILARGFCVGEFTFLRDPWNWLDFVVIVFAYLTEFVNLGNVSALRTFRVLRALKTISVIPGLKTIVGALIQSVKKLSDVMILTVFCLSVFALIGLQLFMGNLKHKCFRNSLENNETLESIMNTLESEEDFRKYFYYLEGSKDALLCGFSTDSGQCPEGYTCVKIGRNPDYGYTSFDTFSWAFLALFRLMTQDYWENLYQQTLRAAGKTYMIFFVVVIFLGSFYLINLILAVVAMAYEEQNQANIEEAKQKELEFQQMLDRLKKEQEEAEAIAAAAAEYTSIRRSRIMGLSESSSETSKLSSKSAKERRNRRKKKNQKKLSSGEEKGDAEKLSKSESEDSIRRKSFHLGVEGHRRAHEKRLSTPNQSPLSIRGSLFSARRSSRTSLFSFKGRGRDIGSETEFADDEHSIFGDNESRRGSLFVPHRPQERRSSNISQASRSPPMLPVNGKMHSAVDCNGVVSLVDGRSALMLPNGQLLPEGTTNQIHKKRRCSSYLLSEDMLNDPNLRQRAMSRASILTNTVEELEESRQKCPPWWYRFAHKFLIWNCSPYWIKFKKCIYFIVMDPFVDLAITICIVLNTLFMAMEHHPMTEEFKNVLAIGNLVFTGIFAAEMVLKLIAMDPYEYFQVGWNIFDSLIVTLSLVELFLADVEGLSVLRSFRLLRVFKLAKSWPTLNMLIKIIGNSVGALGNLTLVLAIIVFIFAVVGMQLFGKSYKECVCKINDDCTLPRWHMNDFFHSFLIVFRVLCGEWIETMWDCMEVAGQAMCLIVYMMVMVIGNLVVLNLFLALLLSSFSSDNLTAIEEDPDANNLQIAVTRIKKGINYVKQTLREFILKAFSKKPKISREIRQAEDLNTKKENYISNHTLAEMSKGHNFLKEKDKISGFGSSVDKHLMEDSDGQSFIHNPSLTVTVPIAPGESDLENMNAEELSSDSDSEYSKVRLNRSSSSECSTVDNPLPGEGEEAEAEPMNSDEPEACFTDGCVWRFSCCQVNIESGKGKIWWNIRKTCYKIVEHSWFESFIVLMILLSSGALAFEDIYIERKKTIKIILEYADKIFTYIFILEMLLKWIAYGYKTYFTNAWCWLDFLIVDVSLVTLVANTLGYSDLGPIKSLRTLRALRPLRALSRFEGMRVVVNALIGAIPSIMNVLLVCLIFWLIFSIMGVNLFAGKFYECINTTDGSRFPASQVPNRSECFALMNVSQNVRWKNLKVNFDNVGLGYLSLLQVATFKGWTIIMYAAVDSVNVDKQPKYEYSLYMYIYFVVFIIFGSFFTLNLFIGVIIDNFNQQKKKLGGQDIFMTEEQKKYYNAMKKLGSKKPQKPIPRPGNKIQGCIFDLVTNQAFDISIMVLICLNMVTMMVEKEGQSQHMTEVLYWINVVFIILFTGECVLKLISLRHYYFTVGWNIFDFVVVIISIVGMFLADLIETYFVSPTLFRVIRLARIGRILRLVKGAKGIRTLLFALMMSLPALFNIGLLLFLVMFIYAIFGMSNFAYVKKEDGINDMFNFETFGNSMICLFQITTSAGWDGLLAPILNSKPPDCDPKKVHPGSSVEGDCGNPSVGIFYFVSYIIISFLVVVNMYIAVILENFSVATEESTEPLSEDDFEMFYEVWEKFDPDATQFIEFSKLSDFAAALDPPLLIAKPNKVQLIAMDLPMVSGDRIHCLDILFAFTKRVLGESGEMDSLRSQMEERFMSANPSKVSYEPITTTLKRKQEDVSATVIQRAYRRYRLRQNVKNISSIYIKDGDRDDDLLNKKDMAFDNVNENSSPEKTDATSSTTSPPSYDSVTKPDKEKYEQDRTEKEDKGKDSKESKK
T1 sequence (Q07699 19-218, further chain): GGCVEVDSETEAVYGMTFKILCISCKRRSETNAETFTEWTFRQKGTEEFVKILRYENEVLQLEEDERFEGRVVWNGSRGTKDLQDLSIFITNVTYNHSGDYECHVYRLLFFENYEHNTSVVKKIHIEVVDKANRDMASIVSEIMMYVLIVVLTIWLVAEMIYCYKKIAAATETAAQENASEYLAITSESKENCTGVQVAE

**Q.** Which results are given for `CC[C@H](C)[C@H](NC(=O)[C@H](CCC(=O)O)NC(=O)[C@H](Cc1ccc(O)cc1)NC(=O)[C@H](CCCCN)NC(=O)[C@@H]1CSSC[C@@H]2NC(=O)[C@H](CCC(N)=O)NC(=O)[C@H](CC(=O)O)NC(=O)[C@H](CC(N)=O)NC(=O)[C@H](CO)NC(=O)[C@@H]3CCCN3C(=O)[C@H](CC(N)=O)NC(=O)[C@@H]3CSSC[C@H](NC(=O)[C@H](C(C)C)NC(=O)[C@H](CC(C)C)NC(=O)[C@H](CC(N)=O)NC(=O)[C@H](CO)NC(=O)[C@H](CO)NC(=O)[C@H](CCCCN)NC(=O)[C@H](CSSC[C@H](NC(=O)[C@@H](N)CCC(=O)O)C(=O)N[C@@H](CC(C)C)C(=O)NCC(=O)N[C@@H](Cc4ccccc4)C(=O)NCC(=O)N[C@@H](CCCCN)C(=O)NCC(=O)N3)NC2=O)C(=O)N[C@@H](CO)C(=O)N[C@@H](CCCNC(=N)N)C(=O)N[C@@H](CCCCN)C(=O)N[C@@H](Cc2c[nH]cn2)C(=O)N[C@@H](CCCNC(=N)N)C(=O)N[C@@H](Cc2c[nH]c3ccccc23)C(=O)N1)C(N)=O` [μ-TRTX-Hhn1b]?
**A.** effect on activation and inactivation of Nav1.7 (human Nav1.7; 50 nM synthetic peptide): did not significantly alter the activation (C) and steady-state inactivation (D) of Nav1.7; also recorded: inhibited the peak current of Nav1.7 without significant alteration of the activation and inactivation kinetics of Nav1.7; half-activation voltage of Nav1.7 (human Nav1.7; 50 nM synthetic peptide, Boltzmann fit): −23.0 ± 0.4 mV; half-inactivation voltage of Nav1.7 (human Nav1.7; 50 nM synthetic peptide, steady-state inactivation, Boltzmann fit): −47.1 ± 0.3 mV; τon, time-dependent inhibition of Nav1.7 (human Nav1.7; 100 nM synthetic peptide, HEK 293 cells): 20.5 ± 0.3 s; inhibitory effect of synthetic peptide compared with native toxin (human Nav1.7; human Nav1.7 in HEK 293 cells): same inhibitory effect on human Nav1.7 current transiently expressed in HEK 293 cells as the native toxin; IC50 (human Nav1.7; synthetic peptide, human Nav1.7 + β1 subunit in HEK 293 cells, whole-cell patch clamp, room temperature, 50-ms depolarization from −80 mV to −10 mV, mean ± S.E., five to eight cells, read-out: IC50, inhibition of Nav1.7 current): ~21 nM; inhibition of pain responses (abdominal constriction) ([1]; 25.0 μg/kg i.p., p < 0.05): 25.2%; inhibition of pain responses (abdominal constriction) ([1]; 100 μg/kg i.p., p < 0.01): 55.6%; pain score over the 40 min period ([2]; 50 µg/kg i.p., n = 6, p < 0.05): 458.5 ± 59.9 s; pain score over the 40 min period ([2]; 100 µg/kg i.p., n = 6, p < 0.01): 346.0 ± 46.2 s; pain score over the 40 min period ([2]; 200 µg/kg i.p., n = 6, p < 0.01): 199.8 ± 32.6 s; antinociceptive activity compared with morphine ([2]; 200 µg/kg peptide vs 100 µg/kg morphine, i.p.): antinociceptive activity similar to 100 µg/kg of morphine; effect on pain responses, early phase ([2]; early phase (0–5 min), 50, 100 or 200 µg/kg i.p.): not in the early phases; also recorded: little effect; suppression of pain behaviors, late phase ([2]; late phase (15–30 min), 50, 100 or 200 µg/kg i.p.): dose-dependent suppression of pain behaviors; also recorded: significantly inhibited; latency to fall off the rotarod ([3]; 0.1 mg/kg, 30 min and 90 min after administration): no significant change in latencies to fall off the rotarod; latency to fall off the rotarod ([3]; 0.2 mg/kg, 30 min after administration, p < 0.05): significantly (p < 0.05) reduced latencies; latency to fall off the rotarod ([3]; 0.2 mg/kg, 90 min after administration): not at 90 min; side effects (mice and rats; 0.2 mg/kg): inactivity and paralysis; abnormal behaviors (mice and rats; highest dose, some mice and rats): inactivity and paralysis, were observed in some mice and rats; animal death (mice and rats; in the three pain tests / all tests): no animal death was observed; also recorded: no animal death occurred in all tests; sensitivity of Nav1.7 relative to other channels [4]: Nav1.7 is the most sensitive to μ-TRTX-Hhn1b; inhibition of other TTX-S VGSCs ([5]; at a high concentration, reference not given): also inhibits other TTX-S VGSCs in rat DRG cells at a high concentration; inhibition of neuronal TTX-S VGSCs [5]: specifically inhibits the neuronal TTX-S VGSCs in rat dorsal root ganglion (DRG) cells
